This note sets out measurements from US9138437B2, “Pyrimidine substituted purine compounds as kinase (S) inhibitors” (VERASTEM, INC., priority 2009, dated 2015).

The structures appear in SMILES notation. ≈ marks a conversion by molar mass, not a printed value. Where two headings read alike, the source gives them in different places.

A short description of data set [1]: in vitro. To be noted: human, pH 7.4; for half-life: microsomes.
Description: Verapamil, purchased from Sigma-Aldrich, is used as a reference standard in the assay. HLM are purchased from Xeno Tech (20 mg/mL in 250 mM sucrose solution). A 100 mM stock solution of potassium phosphate buffer is pre-prepared by combining 80 mL of 1M K2HPO4 and 20 mL of 1 M KH2PO4 in 900 mL of water (pH adjusted to 7.4 using diluted HCl) and stored at room temperature. K2HPO4.3H20 and KH2PO4 are obtained from Sigma Aldrich and the NADPH Regeneration System Solutions A and B from Gentest. The stop solution used to quench the reaction is a pre-prepared mixture of acetonitrile and DMSO (80:20) and is stored at 4° C. All solvents used are HPLC grade and the water used during the stock solution preparation and during LC-MS analysis is deionised using a Milli-Q system.
8 μL of the compound mix is then added to 72 μL of a pre-prepared incubation mix made up of water (2250 μL), 100 mM potassium phosphate buffer (2900 μL), NADPH Regeneration System Solution B (58 μL), NADPH Regeneration System Solution A (290 μL) and HLM (250 μL). The resulting reaction mixture (final compound concentration of 5 μM) is then incubated at 37° C. in a B. Braun Certomat H incubator after which a 50 μL aliquot is dispensed to a well on a separate plate well containing 100 μL of Stop solution. […] Each test compound is sampled multiple times and incubated for a series of time points (5, 15, 30, 45 and 60 min). Remaining compound concentration is determined by LC-MS (ABI Qtrap 3200) and comparison to a reference solution of known concentration. Stability is then expressed as a half-life in minutes (t½).
The nature of data set [2]: physchem. To be noted: pH 7, aqueous buffer, kinetic from dmso stock.
Description: (§1) Compound solubility is determined in a high-throughput kinetic solubility profiling method using a 96-well format. Compound solubility is assessed using a UV/Visible Microplate Spectrophotometer (Molecular Devices SpectraMax Plus384). Vorinostat (SAHA) and Nicardipine, purchased from Sigma, are used as reference standards.
(§2) The mixture is then shaken at 600 rpm for 1.5 h and allowed to stand at room temperature for 2 h. […] The resulting supernatant (80 μL) is transferred to the UV-analysis plate and diluted with DMSO (20 μL). The samples are quantified using calibration stocks of the respective compound made in phosphate buffer/DMSO (80:20).
Data set [3] is described as follows: High throughput solubility assay (kinetic, UV). To be noted: pH 7.
Description: as §1, §2

For the molecule `CCC(C)n1c(Br)nc2c(-c3cnc(N)nc3)nc(N3CCOCC3)nc21` (stereo not shown) [Cmpd A], the “solubility, assessment in words” value (as drug candidate) is given as “low solubility”. In data set [1], the half-life was more than 60 min. The same molecule gave a solubility in data set [2] of 44 µM (≈ 19.1 µg/mL).
Take `CC(C)n1c(Br)nc2c(-c3cnc(N)nc3)nc(N3CCOCC3)nc21` [Cmpd B]: the “solubility, assessment in words” value in data set [3] is recorded as “low solubility”. Moreover, the half-life at 5 μM in data set [1] (liver microsomes) was more than 60 min. This molecule also registered a solubility in data set [2] of 18 µM (≈ 7.55 µg/mL).
Turning to `CCc1nc2c(-c3cnc(N)nc3)nc(N3CCOCC3)nc2n1C(C)C` [Cmpd C], the “solubility, assessment in words” value (as drug candidate) is “acceptable”. The molecule further came in with a half-life in data set [1] of 36 min. In data set [2], this molecule displayed a solubility of more than 250 µM.
On the same counts, the results for `CCC(C)n1c(C)nc2c(-c3cnc(N)nc3)nc(N3CCOCC3)nc21` (stereo not shown) [Cmpd D] are “acceptable”, 26 min and more than 250 µM.
Regarding `CCC(C)n1cnc2c(-c3cnc(N)nc3)nc(N3CCOCC3)nc21` (stereo not shown) [Cmpd E], under “as drug candidate”, the “solubility, assessment in words” value is recorded as “low solubility”. Moreover, the half-life in data set [1] is more than 60 min. In data set [2], this molecule came in with a solubility of 35 µM (≈ 12.4 µg/mL).
For the molecule `Cc1nc2c(-c3cnc(N)nc3)nc(N3CCOCC3)nc2n1C(C)C` [Cmpd of the invention, 5-(9-isopropyl-8-methyl-2-morpholin-4-yl-9H-purin-6-yl)-pyrimidin-2-ylamine], the “solubility, assessment in words” value (pH 7) is given as “acceptable”.
